Patent US3984501A, “Phenyl- and benzylphosphonate esters” (priority 1975, dated 1976)
Where two headings read alike, the source gives them in different places.

What was measured:
[1] = test system: male Swiss Webster mice; assay: Systemic toxicity in male Swiss Webster mice; type: in vivo, mouse; conditions: from Table 2, vs compound 1
Protocol: (§1) Compounds 1-3 were tested for systemic toxicity. Male Swiss Webster mice were injected (i.p. or p.o.) with the test compound dissolved in saline (0.2 ml). The mice were examined every half hour for the first two hours after treatment and every hour for the following four hours. Thereafter the mice were examined irregularly, with a final examination at the end of the 48-hour test.

[2] = Systemic toxicity in male Swiss Webster mice; type: in vivo, mouse; conditions: mouse, in vivo, in saline, 24 hours, read-out: L.D.50 at 24 hours
Protocol: as §1

[3] = test system: PGE2-induced contraction of isolated guinea pig ileum (GPI) and isolated rat fundus (RF); assay: Inhibition of PGE2-induced contraction of isolated smooth muscle preparations (anti-prostaglandin activity); type: cell-based; conditions: for IC50: isolated GPI or RF (tissue not specified per value), incubation 15 min initial exposure, 5 min each successive increment, read-out: I.C.50 (vs PGE2)
Protocol: (§2) The following compounds were tested for their effects on isolated smooth muscle preparations ##SPC18##
(§3) the techniques for setting up the isolated guinea pig ileum (GPI) and isolated rat fundus (RF) were those described in Pharmacological Experiments on Isolated Preparations (E. S. Livingston Ltd., Publishers). The tissues were bathed in Krebs solution and isotonic contractions were recorded. To elicit a maximal contraction after the initial equilibration period, the tissue (GPI or RF) was exposed to 20 ng/ml acetylcholine (ACh). After a dose-dependent pattern was established with ACh, the tissue was exposed to 20 ng/ml of PGE2 in order to elicit a maximal prostaglandin-induced contraction. Test doses of PGE2 and ACh which cause 50% of the maximal contractions were determined.
(§4) To test a compound for anti-prostaglandin activity, the tissue was incubated with a compound for a fixed period of time (15 minutes for the initial exposure to the test drug and 5 minutes for each successive increment in concentration) followed by the test dose of PGE2 or ACh to elicit a tissue contraction. Inhibition of contraction was measured as percent reduction in the magnitude of the response to the test dose of PGE2. The concentration of drug which inhibited the test concentration of PGE2 by 50% (I.C.50) was determined from the dose-response curve obtained by plotting concentration versus percent inhibition. Test contractions with ACh determined whether any decrease in contraction amplitude was specific for prostaglandin-induced contractions or a general deterioration of tissue function. The term selectivitiy refers to % inhibition of ACh-induced contractions at compound dosages which inhibi the PGE2 -induced contraction by the indicated percentage.

[4] = test system: ACh-induced contractions of isolated guinea pig ileum (GPI) and isolated rat fundus (RF); assay: Inhibition of ACh-induced contraction of isolated smooth muscle (selectivity); type: cell-based; conditions: for Selectivity: % inhibition of ACh-induced contractions at dosages which inhibit the PGE2-induced contraction by 50%: at 50% inhibition of PGE2-induced contraction; for Selectivity: % inhibition of ACh-induced contractions at dosages which inhibit the PGE2-induced contraction by 70%: at 70% inhibition of PGE2-induced contraction; for Selectivity: % inhibition of ACh-induced contractions at dosages which inhibit the PGE2-induced contraction by 90%: at 90% inhibition of PGE2-induced contraction
Protocol: as §2, §3, §4

[5] = Topical toxicity in hairless mice; conditions: mouse, in vivo, topical or ocular, topically, 0.1 ml of 90% PEG, read-out: L.D.50 at 24 hours
Protocol: Topical toxicity was determined at a single dosage level on two hairless mice. The animals were restrained with neck collars. The test compound was applied in a total volume of 0.1 ml of 90% PEG (10% H2 O) spread uniformly over the back by means of a Q-tip.

SMILES | toxicity relative to compound 1 [1] | LD50 at 24 h ([2]; ip) [mg/kg] | IC50 [3] [nM] | Selectivity: % inhibition of ACh-induced contractions at dosages which inhibit the PGE2-induced contraction by 50% [4] [%] | Selectivity: % inhibition of ACh-induced contractions at dosages which inhibit the PGE2-induced contraction by 70% [4] [%] | Selectivity: % inhibition of ACh-induced contractions at dosages which inhibit the PGE2-induced contraction by 90% [4] | LD50 at 24 h ([2]; po) [mg/kg] | LD50 at 24 h [5] [mg/kg] | IC50 ([3]; Cavia porcellus) [nM] | times more potent than compound 1 ([3]; potency ratio vs compound 1, from Table 1) | times more potent than compound 2 ([3]; potency ratio vs compound 2, from Table 1)
O=C(c1ccc(OP(=O)(O)c2ccccc2)cc1)C(Cc1ccccc1)Cc1ccc(Cl)cc1 (centres unmarked) [Compound 2] | considerably less toxic than compound 1 | 361 | 200 | 0 | 0 | 30% |  |  |  |  | 
O=C(c1ccc(OP(=O)(O)Oc2ccccc2)cc1)C(Cc1ccccc1)Cc1ccc(Cl)cc1 (centres unmarked) [Compound 1, reference compound] |  | 194 |  | 0 | 0 | 0% | 235 | > 4300 | 47 |  | 
O=C(c1ccc(OP(=O)(O)Cc2ccccc2)cc1)C(Cc1ccccc1)Cc1ccc(Cl)cc1 (centres unmarked) [Compound 3] | considerably less toxic than compound 1 | 408 | 6.1 | 0 | 0 | 10-15% | 715 | > 4350 |  | about 8 times | approximately 30 times
